ChEMBL document CHEMBL2150882, “Discovery of a new molecular probe ML228: an activator of the hypoxia inducible factor (HIF) pathway” (Bioorg Med Chem Lett, 2012)
Blank lines part the entries; values can stand above or below the compound they belong to. Calls of active or inactive are those of the source. The rule behind the calls is not given here.

Columns and labels:
[1] = target: Mu-type opioid receptor (Homo sapiens) (UniProt P35372); assay: Inhibition of human mu opioid receptor at 10 uM by radioligand displacement assay
Mu-type opioid receptor (Homo sapiens), sequence (P35372 whole entry): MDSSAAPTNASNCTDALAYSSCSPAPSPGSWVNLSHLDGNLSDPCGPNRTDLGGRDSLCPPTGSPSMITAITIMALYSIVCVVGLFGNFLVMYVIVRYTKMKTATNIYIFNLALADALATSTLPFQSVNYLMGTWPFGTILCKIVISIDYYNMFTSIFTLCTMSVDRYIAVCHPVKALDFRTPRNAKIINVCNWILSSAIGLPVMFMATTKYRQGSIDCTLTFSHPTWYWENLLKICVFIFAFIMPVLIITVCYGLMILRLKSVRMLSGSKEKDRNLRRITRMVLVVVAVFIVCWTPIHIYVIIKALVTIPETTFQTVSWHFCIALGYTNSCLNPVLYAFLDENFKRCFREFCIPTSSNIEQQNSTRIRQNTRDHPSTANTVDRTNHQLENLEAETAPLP

[2] = target: D(1A) dopamine receptor (Homo sapiens) (UniProt P21728); assay: Inhibition of human dopamine D1 receptor at 10 uM by radioligand displacement assay
D(1A) dopamine receptor (Homo sapiens), sequence (P21728 whole entry): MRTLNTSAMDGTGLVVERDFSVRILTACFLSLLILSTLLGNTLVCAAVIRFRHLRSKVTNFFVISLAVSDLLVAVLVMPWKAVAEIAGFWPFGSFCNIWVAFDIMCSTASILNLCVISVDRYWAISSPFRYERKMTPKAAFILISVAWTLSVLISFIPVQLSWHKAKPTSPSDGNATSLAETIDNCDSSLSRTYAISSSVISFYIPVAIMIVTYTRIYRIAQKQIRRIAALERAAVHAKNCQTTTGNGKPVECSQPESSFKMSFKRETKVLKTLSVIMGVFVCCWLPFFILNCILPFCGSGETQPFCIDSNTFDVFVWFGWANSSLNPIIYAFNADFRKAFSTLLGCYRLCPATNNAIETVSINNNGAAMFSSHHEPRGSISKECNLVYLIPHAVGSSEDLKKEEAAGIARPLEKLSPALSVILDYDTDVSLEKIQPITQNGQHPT

[3] = target: Sodium-dependent noradrenaline transporter (Homo sapiens) (UniProt P23975); assay: Inhibition of human NET at 10 uM by radioligand displacement assay
U2OS [4] = assay: Cytotoxicity against human U2OS cells expressing human HIF1alpha by CellTiterGlo assay in presence of 50 uM iron; assay type: cell-based
[5] = target: 5-hydroxytryptamine receptor 2B (Homo sapiens) (UniProt P41595); assay: Inhibition of human 5HT2B at 10 uM by radioligand displacement assay
5-hydroxytryptamine receptor 2B (Homo sapiens), sequence (P41595 whole entry): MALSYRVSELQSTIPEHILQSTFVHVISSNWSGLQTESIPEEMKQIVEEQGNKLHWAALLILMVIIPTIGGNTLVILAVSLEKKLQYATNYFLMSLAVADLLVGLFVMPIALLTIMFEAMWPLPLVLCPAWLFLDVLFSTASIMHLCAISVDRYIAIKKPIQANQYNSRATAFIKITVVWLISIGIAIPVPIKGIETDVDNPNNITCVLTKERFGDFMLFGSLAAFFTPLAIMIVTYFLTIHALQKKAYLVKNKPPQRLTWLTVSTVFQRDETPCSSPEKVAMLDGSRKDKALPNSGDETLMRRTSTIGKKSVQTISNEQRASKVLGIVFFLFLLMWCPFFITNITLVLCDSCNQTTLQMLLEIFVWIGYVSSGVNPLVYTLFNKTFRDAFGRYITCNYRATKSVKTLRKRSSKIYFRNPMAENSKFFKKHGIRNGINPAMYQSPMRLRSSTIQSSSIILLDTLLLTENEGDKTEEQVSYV

Homo sapiens = organism: Homo sapiens; assay: Inhibition of human melatonin MT1 receptor at 10 uM by radioligand displacement assay
Rattus norvegicus [6] = organism: Rattus norvegicus; assay: Inhibition of rat L-type calcium channel dihydropyridine binding site at 10 uM by radioligand displacement assay
hERG (KCNH2) = hERG (KCNH2) (Homo sapiens, UniProt Q12809); assay: Inhibition of human ERG at 10 uM by radioligand displacement assay
hERG (KCNH2), sequence (Q12809 whole entry): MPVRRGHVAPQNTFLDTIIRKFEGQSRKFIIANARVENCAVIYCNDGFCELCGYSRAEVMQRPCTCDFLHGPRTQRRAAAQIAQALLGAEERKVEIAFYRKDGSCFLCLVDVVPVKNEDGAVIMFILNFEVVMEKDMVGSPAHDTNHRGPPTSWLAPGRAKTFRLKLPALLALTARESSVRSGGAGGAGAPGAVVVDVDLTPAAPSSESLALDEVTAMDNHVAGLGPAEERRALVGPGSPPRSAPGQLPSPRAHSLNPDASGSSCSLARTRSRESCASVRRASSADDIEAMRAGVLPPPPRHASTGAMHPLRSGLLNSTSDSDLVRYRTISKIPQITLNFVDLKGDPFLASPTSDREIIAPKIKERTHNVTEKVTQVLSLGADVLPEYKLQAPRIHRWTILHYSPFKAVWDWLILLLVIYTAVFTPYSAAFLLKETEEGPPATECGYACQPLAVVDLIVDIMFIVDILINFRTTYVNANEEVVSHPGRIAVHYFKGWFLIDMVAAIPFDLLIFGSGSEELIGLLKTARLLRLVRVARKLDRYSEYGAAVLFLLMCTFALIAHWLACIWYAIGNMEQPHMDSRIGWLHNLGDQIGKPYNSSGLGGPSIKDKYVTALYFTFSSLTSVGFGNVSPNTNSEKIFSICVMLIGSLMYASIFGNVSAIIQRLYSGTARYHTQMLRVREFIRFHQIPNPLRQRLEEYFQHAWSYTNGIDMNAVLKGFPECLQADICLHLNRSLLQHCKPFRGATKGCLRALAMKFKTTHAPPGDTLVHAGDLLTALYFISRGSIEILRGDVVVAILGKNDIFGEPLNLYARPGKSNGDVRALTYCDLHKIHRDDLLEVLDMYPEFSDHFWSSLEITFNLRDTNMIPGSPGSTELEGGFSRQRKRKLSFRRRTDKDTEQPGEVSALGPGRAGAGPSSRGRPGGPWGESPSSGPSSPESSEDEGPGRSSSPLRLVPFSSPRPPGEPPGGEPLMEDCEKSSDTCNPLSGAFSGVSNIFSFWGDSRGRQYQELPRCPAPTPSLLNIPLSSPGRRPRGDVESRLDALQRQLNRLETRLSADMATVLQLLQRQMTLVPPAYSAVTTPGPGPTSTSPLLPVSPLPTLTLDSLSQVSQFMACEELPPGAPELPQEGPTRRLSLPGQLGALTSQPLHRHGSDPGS

[7] = target: Sodium-dependent dopamine transporter (Homo sapiens) (UniProt Q01959); assay: Inhibition of human DAT at 10 uM by radioligand displacement assay
Sodium-dependent dopamine transporter (Homo sapiens), sequence (Q01959 whole entry): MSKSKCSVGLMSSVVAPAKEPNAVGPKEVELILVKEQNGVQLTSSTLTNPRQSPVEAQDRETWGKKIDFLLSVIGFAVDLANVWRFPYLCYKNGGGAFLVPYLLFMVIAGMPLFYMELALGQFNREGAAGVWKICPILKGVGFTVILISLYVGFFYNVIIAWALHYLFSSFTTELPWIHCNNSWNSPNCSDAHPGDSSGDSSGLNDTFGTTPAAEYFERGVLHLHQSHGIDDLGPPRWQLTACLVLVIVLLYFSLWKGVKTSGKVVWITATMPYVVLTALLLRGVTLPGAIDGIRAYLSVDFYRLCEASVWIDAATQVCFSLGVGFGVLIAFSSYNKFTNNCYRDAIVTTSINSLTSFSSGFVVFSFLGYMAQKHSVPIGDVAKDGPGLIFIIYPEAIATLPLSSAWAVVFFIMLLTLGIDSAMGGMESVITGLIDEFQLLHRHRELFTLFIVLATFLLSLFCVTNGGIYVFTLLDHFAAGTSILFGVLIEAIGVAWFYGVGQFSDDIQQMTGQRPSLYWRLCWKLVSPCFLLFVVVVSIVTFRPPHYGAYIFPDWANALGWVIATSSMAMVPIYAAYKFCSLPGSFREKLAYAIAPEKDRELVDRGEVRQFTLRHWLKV

[8] = target: Histamine H1 receptor (Homo sapiens) (UniProt P35367); assay: Inhibition of human histamine H1 receptor at 10 uM by radioligand displacement assay
Histamine H1 receptor (Homo sapiens), sequence (P35367 whole entry): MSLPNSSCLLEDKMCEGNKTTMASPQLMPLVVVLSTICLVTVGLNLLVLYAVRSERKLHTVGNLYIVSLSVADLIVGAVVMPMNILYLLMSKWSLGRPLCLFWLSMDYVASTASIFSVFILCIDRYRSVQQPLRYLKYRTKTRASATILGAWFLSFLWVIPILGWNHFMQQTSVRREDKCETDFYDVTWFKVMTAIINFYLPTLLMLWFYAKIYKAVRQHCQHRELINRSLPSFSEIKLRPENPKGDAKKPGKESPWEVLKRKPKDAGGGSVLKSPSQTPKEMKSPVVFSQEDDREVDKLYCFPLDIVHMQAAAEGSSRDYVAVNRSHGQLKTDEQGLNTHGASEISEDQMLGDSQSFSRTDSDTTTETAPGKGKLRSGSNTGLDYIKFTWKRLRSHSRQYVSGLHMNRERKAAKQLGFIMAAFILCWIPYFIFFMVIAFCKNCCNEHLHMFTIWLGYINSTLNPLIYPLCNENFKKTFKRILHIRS

Rattus norvegicus [9] = organism: Rattus norvegicus; assay: Inhibition of rat sodium channel site 2 at 10 uM by radioligand displacement assay
[10] = target: Prostaglandin E2 receptor EP4 subtype (Homo sapiens) (UniProt P35408); assay: Inhibition of human prostanoid EP4 receptor at 10 uM by radioligand displacement assay
Prostaglandin E2 receptor EP4 subtype (Homo sapiens), sequence (P35408 whole entry): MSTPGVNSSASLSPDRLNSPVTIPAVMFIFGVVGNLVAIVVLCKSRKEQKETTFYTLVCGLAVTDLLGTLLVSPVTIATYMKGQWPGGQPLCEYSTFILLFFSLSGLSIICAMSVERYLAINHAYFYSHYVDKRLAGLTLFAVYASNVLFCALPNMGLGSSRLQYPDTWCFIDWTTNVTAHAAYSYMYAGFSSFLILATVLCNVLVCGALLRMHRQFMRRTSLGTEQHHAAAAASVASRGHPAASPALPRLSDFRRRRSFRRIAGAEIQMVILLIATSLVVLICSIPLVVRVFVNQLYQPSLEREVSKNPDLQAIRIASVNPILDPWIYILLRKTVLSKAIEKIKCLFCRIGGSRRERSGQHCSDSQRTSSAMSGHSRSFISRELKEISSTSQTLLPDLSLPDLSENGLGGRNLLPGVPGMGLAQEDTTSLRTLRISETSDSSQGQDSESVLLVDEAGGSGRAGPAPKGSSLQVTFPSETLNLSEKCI

[11] = target: D(3) dopamine receptor (Homo sapiens) (UniProt P35462); assay: Inhibition of human dopamine D3 receptor at 10 uM by radioligand displacement assay
D(3) dopamine receptor (Homo sapiens), sequence (P35462 whole entry): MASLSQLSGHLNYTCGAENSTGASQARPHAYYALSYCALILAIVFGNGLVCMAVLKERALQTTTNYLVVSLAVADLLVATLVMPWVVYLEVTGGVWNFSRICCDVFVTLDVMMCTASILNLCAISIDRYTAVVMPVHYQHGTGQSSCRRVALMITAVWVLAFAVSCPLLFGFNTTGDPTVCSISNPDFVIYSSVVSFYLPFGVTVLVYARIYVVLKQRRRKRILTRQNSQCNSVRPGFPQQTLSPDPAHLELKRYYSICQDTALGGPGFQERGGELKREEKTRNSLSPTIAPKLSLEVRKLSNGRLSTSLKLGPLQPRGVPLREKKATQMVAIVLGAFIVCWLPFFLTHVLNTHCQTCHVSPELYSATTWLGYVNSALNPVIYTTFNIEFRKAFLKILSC

U2OS [12] = assay: Cytotoxicity against human U2OS cells expressing human HIF1alpha by CellTiterGlo assay in presence of 50 uM zinc; assay type: cell-based
[13] = target: T1, Alpha-1D adrenergic receptor (Homo sapiens) (UniProt P25100); assay: Inhibition of human alpha1D adrenergic receptor at 10 uM by radioligand displacement assay
T1 sequence (whole entry): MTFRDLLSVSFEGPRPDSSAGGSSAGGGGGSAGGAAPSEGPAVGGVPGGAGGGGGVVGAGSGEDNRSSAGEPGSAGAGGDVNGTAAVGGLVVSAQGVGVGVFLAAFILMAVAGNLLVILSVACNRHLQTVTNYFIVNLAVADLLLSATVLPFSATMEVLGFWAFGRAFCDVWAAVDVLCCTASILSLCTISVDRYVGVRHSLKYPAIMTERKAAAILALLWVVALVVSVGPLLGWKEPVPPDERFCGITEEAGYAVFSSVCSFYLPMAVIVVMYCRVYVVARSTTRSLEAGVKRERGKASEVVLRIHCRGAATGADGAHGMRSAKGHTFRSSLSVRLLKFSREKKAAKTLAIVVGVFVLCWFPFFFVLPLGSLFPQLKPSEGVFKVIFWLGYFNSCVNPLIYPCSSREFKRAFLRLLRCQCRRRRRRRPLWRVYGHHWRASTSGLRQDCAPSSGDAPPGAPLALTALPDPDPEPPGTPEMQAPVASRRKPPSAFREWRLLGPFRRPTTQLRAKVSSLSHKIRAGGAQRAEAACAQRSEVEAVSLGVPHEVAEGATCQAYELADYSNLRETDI

[14] = target: Kappa-type opioid receptor (Homo sapiens) (UniProt P41145); assay: Inhibition of human kappa opioid receptor at 10 uM by radioligand displacement assay
Kappa-type opioid receptor (Homo sapiens), sequence (P41145 whole entry): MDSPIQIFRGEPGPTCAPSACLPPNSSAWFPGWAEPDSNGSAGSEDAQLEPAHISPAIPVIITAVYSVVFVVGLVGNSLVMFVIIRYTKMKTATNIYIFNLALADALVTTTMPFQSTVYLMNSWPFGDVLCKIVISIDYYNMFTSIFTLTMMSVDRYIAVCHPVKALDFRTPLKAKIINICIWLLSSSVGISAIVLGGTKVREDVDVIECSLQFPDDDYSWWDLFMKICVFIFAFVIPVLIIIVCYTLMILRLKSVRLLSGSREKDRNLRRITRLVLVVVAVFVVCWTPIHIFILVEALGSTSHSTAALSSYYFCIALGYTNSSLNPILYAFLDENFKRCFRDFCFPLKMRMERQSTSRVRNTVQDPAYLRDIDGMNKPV

[15] = Inhibition of proteasome chymotrypsin-like activity using Suc-LLVY-aminoluciferin as substrate by luciferase-coupled assay; assay type: subcellular
[16] = target: T2, Adenosine receptor A3 (Homo sapiens) (UniProt P0DMS8); assay: Inhibition of human adenosine receptor A3 at 10 uM by radioligand displacement assay
T2 sequence (whole entry): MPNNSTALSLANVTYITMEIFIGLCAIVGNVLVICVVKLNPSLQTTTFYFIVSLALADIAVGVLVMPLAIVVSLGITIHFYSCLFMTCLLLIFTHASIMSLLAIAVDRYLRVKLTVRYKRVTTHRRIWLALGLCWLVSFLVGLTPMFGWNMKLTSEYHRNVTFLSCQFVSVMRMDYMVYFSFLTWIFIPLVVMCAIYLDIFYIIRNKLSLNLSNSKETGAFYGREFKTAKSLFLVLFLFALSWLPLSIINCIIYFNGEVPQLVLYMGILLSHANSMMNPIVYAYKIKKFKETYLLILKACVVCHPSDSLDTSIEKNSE

[17] = target: T3, Alpha-2A adrenergic receptor (Homo sapiens) (UniProt P08913); assay: Inhibition of human alpha2A adrenergic receptor at 10 uM by radioligand displacement assay
T3 sequence (whole entry): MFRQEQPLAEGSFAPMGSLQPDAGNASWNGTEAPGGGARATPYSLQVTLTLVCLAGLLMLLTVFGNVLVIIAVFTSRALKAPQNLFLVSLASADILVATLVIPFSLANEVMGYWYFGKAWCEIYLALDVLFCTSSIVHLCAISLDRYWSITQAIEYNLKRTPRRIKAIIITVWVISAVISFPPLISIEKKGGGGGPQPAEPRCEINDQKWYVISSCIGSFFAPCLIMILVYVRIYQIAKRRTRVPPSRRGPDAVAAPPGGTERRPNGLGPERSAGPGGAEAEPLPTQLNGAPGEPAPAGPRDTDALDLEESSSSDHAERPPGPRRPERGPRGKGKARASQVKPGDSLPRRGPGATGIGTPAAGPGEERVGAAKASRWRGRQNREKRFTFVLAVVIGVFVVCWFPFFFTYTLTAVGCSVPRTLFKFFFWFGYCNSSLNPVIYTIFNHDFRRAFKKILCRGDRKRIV

inhibition [1]: inactive
Compound: CCCCNC(=O)c1cc(-c2ccc(F)cc2)on1

inhibition [2]: 54% | inhibition [1]: 85% | inhibition [3]: 67% | inhibition [5]: 92% | inhibition (Homo sapiens): 51% | inhibition (Rattus norvegicus [6]): 56% | inhibition [7]: 87% | inhibition [8]: 65% | inhibition (Rattus norvegicus [9]): 105% | inhibition [10]: 53% | inhibition [11]: 67% | inhibition [13]: 53% | inhibition [14]: 71% | inhibition [15]: inactive | inhibition [16]: 80% | inhibition [17]: 57%
Compound: c1ccc(-c2ccc(CNc3nc(-c4ccccn4)nnc3-c3ccccc3)cc2)cc1
Activity (U2OS [4]): Non-toxic | inhibition at 10 µM (hERG (KCNH2)): 86% | Activity (U2OS [12]): Non-toxic

inhibition [1]: inactive
Compound: O=C(NCCCN1CCOCC1)c1cc(-c2ccccc2)on1

The remaining lines, values behind:

Compound: O=C(NCC1CC1)c1cc(-c2ccccc2)on1
inhibition [1]: inactive

Compound: O=C(NCCCn1ccnc1)c1cc(-c2ccccc2)on1
inhibition [1]: inactive

Compound: O=C(NCCCCO)c1cc(-c2ccccc2)on1
inhibition [1]: inactive
